Converted amounts (≈) assume the structure as drawn.
Tests used:
Assay in all cases: Antibacterial activity MIC, two-fold agar dilution
Format in all cases: cell-based
[1] = test system: Acinetobacter calcoaceticus ATCC 15473; details: ATCC15473; Acinetobacter calcoaceticus ATCC 15473; Muller-Hinton agar, 37° C., 20 hours; read-out: Antibacterial Activity MIC
In short: (§1)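 Two-fold dilution series of compound in Muller-Hinton agar; 2 μl inoculum at 10^7 CFU/ml; 37° C. for 20 h; MIC determined.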

[2] = test system: Bacillus cereus ATCC 11778; details: ATCC11778; Bacillus cereus ATCC 11778; Muller-Hinton agar, 37° C., 20 hours; read-out: Antibacterial Activity MIC
In short: as §1

[3] = test system: Bacillus megaterium ATCC 9885; details: Priestia megaterium, ATCC9885; Bacillus megaterium ATCC 9885; Muller-Hinton agar, 37° C., 20 hours; read-out: Antibacterial Activity MIC
In short: as §1

[4] = test system: Citrobacter freundii ATCC 8090; details: ATCC8090; Citrobacter freundii ATCC 8090; Muller-Hinton agar, 37° C., 20 hours; read-out: Antibacterial Activity MIC
In short: as §1

[5] = test system: Enterobacter aerogenes ATCC 29751; details: Klebsiella aerogenes, ATCC29751; Enterobacter aerogenes ATCC 29751; Muller-Hinton agar, 37° C., 20 hours; read-out: Antibacterial Activity MIC
In short: as §1

[6] = test system: Enterobacter cloacae ATCC 27508; details: ATCC27508; Enterobacter cloacae ATCC 27508; Muller-Hinton agar, 37° C., 20 hours; read-out: Antibacterial Activity MIC
In short: as §1

[7] = test system: Escherichia coli ATCC 10536; details: ATCC10536, Muller-Hinton agar, 37° C., 20 hours
In short: as §1

[8] = test system: Escherichia coli ATCC 25922; details: ATCC25922, Muller-Hinton agar, 37° C., 20 hours
In short: as §1

[9] = test system: Klebsiella pneumoniae ATCC 10031; details: ATCC10031; Klebsiella pneumoniae ATCC 10031; Muller-Hinton agar, 37° C., 20 hours; read-out: Antibacterial Activity MIC
In short: as §1

[10] = test system: Micrococcus luteus ATCC 9341; details: ATCC9341; Micrococcus luteus ATCC 9341; Muller-Hinton agar, 37° C., 20 hours; read-out: Antibacterial Activity MIC
In short: as §1

[11] = test system: Morganella morganii ATCC 8076h; details: ATCC8076H, Muller-Hinton agar, 37° C., 20 hours
In short: as §1

[12] = test system: Proteus mirabilis ATCC 25933; details: ATCC25933; Proteus mirabilis ATCC 25933; Muller-Hinton agar, 37° C., 20 hours; read-out: Antibacterial Activity MIC
In short: as §1

[13] = test system: Proteus vulgaris ATCC 6059; details: ATCC6059; Proteus vulgaris ATCC 6059; Muller-Hinton agar, 37° C., 20 hours; read-out: Antibacterial Activity MIC
In short: as §1

[14] = test system: Providencia rettgeri ATCC 9250; details: ATCC9250, Muller-Hinton agar, 37° C., 20 hours
In short: as §1

[15] = test system: Pseudomonas aeruginosa ATCC 10145; details: ATCC10145; Pseudomonas aeruginosa ATCC 10145; Muller-Hinton agar, 37° C., 20 hours; read-out: Antibacterial Activity MIC
In short: as §1

[16] = test system: Pseudomonas aeruginosa ATCC 25619; details: ATCC25619; Pseudomonas aeruginosa ATCC 25619; Muller-Hinton agar, 37° C., 20 hours; read-out: Antibacterial Activity MIC
In short: as §1

[17] = test system: Pseudomonas aeruginosa ATCC 27853; details: ATCC27853; Pseudomonas aeruginosa ATCC 27853; Muller-Hinton agar, 37° C., 20 hours; read-out: Antibacterial Activity MIC
In short: as §1

[18] = test system: Salmonella typhimurium ATCC 14028; details: Salmonella enterica; Salmonella typhimurium ATCC 14028; Muller-Hinton agar, 37° C., 20 hours; read-out: Antibacterial Activity MIC
In short: as §1

[19] = test system: Serratia marcescens ATCC 27117; details: ATCC27117; Serratia marcescens ATCC 27117; Muller-Hinton agar, 37° C., 20 hours; read-out: Antibacterial Activity MIC
In short: as §1

[20] = test system: Shigella flexneri ATCC 11836; details: ATCC11836, Muller-Hinton agar, 37° C., 20 hours
In short: as §1

[21] = test system: Shigella sonnei ATCC 11060; details: ATCC11060, Muller-Hinton agar, 37° C., 20 hours
In short: as §1

[22] = test system: Staphylococcus aureus ATCC 10537; details: ATCC10537; Staphylococcus aureus ATCC 10537; Muller-Hinton agar, 37° C., 20 hours; read-out: Antibacterial Activity MIC
In short: as §1

[23] = test system: Staphylococcus aureus ATCC 6538p; details: ATCC6538P; Staphylococcus aureus ATCC 6538p; Muller-Hinton agar, 37° C., 20 hours; read-out: Antibacterial Activity MIC
In short: as §1

[24] = test system: Staphylococcus epidermidis ATCC 12228; details: ATCC12228; Staphylococcus epidermidis ATCC 12228; Muller-Hinton agar, 37° C., 20 hours; read-out: Antibacterial Activity MIC
In short: as §1

[25] = test system: Streptococcus faecalis ATCC 29212; details: Enterococcus faecalis, ATCC29212; Streptococcus faecalis ATCC 29212; Muller-Hinton agar, 37° C., 20 hours; read-out: Antibacterial Activity MIC
In short: as §1

Row | SMILES | MIC [1] [mg/L] | MIC [2] [mg/L] | MIC [3] [mg/L] | MIC [4] [mg/L] | MIC [5] [mg/L] | MIC [6] [mg/L] | MIC [7] [mg/L] | MIC [8] [mg/L] | MIC [9] [mg/L] | MIC [10] [mg/L] | MIC [11] [mg/L] | MIC [12] [mg/L] | MIC [13] [mg/L] | MIC [14] [mg/L] | MIC [15] [mg/L] | MIC [16] [mg/L] | MIC [17] [mg/L] | MIC [18] [mg/L] | MIC [19] [mg/L] | MIC [20] [mg/L] | other results
1 | CCO/N=C(\C(=O)N[C@@H]1C(=O)N2C(C(=O)[O-])=C(CSc3cc(N)[n+](C)c(N)n3)CS[C@H]12)c1nsc(N)n1 [Compound I-10, (6R,7R)-7-[(Z)-2-(5-amino-1,2,4-thiadiazol-3-yl)-2-(ethoxyimino)acetamido]-3-(2,6-diamino-1-methylpyrimidinium-4-yl)thiomethyl-3-cephem-4-carboxylate] | 4 (≈ 7.06 µM) | 128 (≈ 226 µM) | 0.13 (≈ 0.229 µM) | 0.13 (≈ 0.229 µM) | 0.25 (≈ 0.441 µM) | 0.016 (≈ 0.0282 µM) | 0.13 (≈ 0.229 µM) | 0.25 (≈ 0.441 µM) | ≤ 0.008 | 0.016 (≈ 0.0282 µM) | 0.016 (≈ 0.0282 µM) | 0.25 (≈ 0.441 µM) | 0.25 (≈ 0.441 µM) | ≤ 0.008 | 1 (≈ 1.76 µM) | 0.5 (≈ 0.882 µM) | 1 (≈ 1.76 µM) | 0.063 (≈ 0.111 µM) | 0.13 (≈ 0.229 µM) | 0.031 (≈ 0.0547 µM) | MIC [21]: 0.25 mg/L (≈ 0.441 µM); MIC [22]: 0.5 mg/L (≈ 0.882 µM); MIC [23]: 0.5 mg/L (≈ 0.882 µM); MIC [24]: 0.25 mg/L (≈ 0.441 µM); MIC [25]: 8 mg/L (≈ 14.1 µM)
2 | CC(C)(O/N=C(\C(=O)NC1C(=O)N2C(C(=O)[O-])=C(CSc3nc(N)nc(N)[n+]3-c3ccccc3)CS[C@H]12)c1csc(N)n1)C(=O)O (stereo partly shown) [Compound I-25, 7-[(Z)-2-(2-aminothiazol-4-yl) -2-(2-carboxyprop-2-oxyimino)acetamido]-3-(4,6-diamino-1-phenyl-1,3,5-triazinium-2-yl)thiomethyl-3-cephem-4-carboxylate] | 16 (≈ 23.3 µM) | 128 (≈ 186 µM) | 0.5 (≈ 0.728 µM) | 0.5 (≈ 0.728 µM) | 2 (≈ 2.91 µM) | 0.13 (≈ 0.189 µM) | 0.13 (≈ 0.189 µM) | 0.25 (≈ 0.364 µM) | 0.25 (≈ 0.364 µM) | 0.5 (≈ 0.728 µM) | ≤ 0.008 | 0.13 (≈ 0.189 µM) | 0.13 (≈ 0.189 µM) | ≤ 0.008 | 4 (≈ 5.82 µM) | 1 (≈ 1.46 µM) | 2 (≈ 2.91 µM) | 0.25 (≈ 0.364 µM) | 0.13 (≈ 0.189 µM) | 0.13 (≈ 0.189 µM) | MIC [21]: 0.25 mg/L (≈ 0.364 µM); MIC [22]: 4 mg/L (≈ 5.82 µM); MIC [23]: 4 mg/L (≈ 5.82 µM); MIC [24]: 4 mg/L (≈ 5.82 µM); MIC [25]: > 128 mg/L
3 | CC[n+]1c(SCC2=C(C(=O)[O-])N3C(=O)[C@@H](NC(=O)/C(=N\OC(C)(C)C(=O)O)c4csc(N)n4)[C@H]3SC2)cc(N)nc1N [Compound I-2, (6R,7R)-7-[(Z)-2-(2-aminothiazol-4-yl)-2-(carboxyprop-2-oxyimino)acetamido]-3-(2,6-diamino-3-ethylpyrimidinium-4-yl)thiomethyl-3-cephem-4-carboxylate] | 4 (≈ 6.27 µM) | 64 (≈ 100 µM) | 0.25 (≈ 0.392 µM) | 0.13 (≈ 0.204 µM) | 1 (≈ 1.57 µM) | 0.016 (≈ 0.0251 µM) | 0.063 (≈ 0.0988 µM) | 0.063 (≈ 0.0988 µM) | 0.031 (≈ 0.0486 µM) | 0.5 (≈ 0.784 µM) | ≤ 0.008 | 0.31 (≈ 0.486 µM) | 0.13 (≈ 0.204 µM) | ≤ 0.008 | 1 (≈ 1.57 µM) | 1 (≈ 1.57 µM) | 1 (≈ 1.57 µM) | 0.5 (≈ 0.784 µM) | 0.13 (≈ 0.204 µM) | 0.031 (≈ 0.0486 µM) | MIC [21]: 0.25 mg/L (≈ 0.392 µM); MIC [22]: 4 mg/L (≈ 6.27 µM); MIC [23]: 4 mg/L (≈ 6.27 µM); MIC [24]: 1 mg/L (≈ 1.57 µM); MIC [25]: > 128 mg/L
4 | CC[n+]1c(N)nc(N)nc1SCC1=C(C(=O)[O-])N2C(=O)C(NC(=O)/C(=N\OC(C)(C)C(=O)O)c3csc(N)n3)[C@H]2SC1 (stereo partly shown) [Compound I-24, 7-[(Z)-2-(2-aminothiazol-4-yl) -2-(2-carboxyprop-2-oxyimino)acetamido]-3-(4,6-diamino-1-ethyl-1,3,5-triazinium-2-yl)thiomethyl-3-cephem-4-carboxylate] | 4 (≈ 6.26 µM) | > 128 | 0.5 (≈ 0.783 µM) | 0.13 (≈ 0.204 µM) | 2 (≈ 3.13 µM) | 0.031 (≈ 0.0485 µM) | 0.13 (≈ 0.204 µM) | 0.063 (≈ 0.0986 µM) | 0.063 (≈ 0.0986 µM) | 1 (≈ 1.57 µM) | ≤ 0.008 | 0.063 (≈ 0.0986 µM) | 0.063 (≈ 0.0986 µM) | ≤ 0.008 | 2 (≈ 3.13 µM) | 1 (≈ 1.57 µM) | 1 (≈ 1.57 µM) | 0.13 (≈ 0.204 µM) | 0.13 (≈ 0.204 µM) | 0.063 (≈ 0.0986 µM) | MIC [21]: 0.063 mg/L (≈ 0.0986 µM); MIC [22]: 2 mg/L (≈ 3.13 µM); MIC [23]: 4 mg/L (≈ 6.26 µM); MIC [24]: 2 mg/L (≈ 3.13 µM); MIC [25]: > 128 mg/L

— patent publication US5292733A, “Cephalosporin compounds” (Lucky Limited, priority 1991, dated 1994)
